{"source": "paper PMC9021288", "about": "(Nature Communications, 2022)", "key": {"AcAS (PF3D7_0627800)": {"system": "AcAS (PF3D7_0627800)", "experiment": "Cellular thermal shift assay on parasite lysate", "assay_type": "binding, Plasmodium falciparum", "settings": "1 µM; for AcAS band intensity normalized to DMSO at 37 °C: listed as iPanAm", "method": "A cellular thermal shift assay (CETSA) was performed on infected RBCs or parasite lysates as described previously.\nFor a CETSA on parasite lysates, synchronized trophozoite cultures (ACS11-tagged parasites) were treated with 0.1% saponin to lyse the RBCs, and washed three times in PBS. Subsequently, parasite pellets were resuspended in 1× lysis buffer and subjected to three flash-freeze-thaw cycles using liquid nitrogen, followed by mechanical shearing using a syringe with a 25 G and a 30 G needle. Samples were spun down at 18,000 g for 20 min at 4 °C. The supernatant was diluted to 2.1 mg/ml protein concentration, and 100 µl was added to each PCR tube containing 1 µl of the compound at a 100× concentration (final concentration of 1 µM). Samples were incubated for 30 min at room temperature, subjected to a thermal gradient for 3 min on a pre-heated PCR machine, followed by 4 °C for 3 min. Samples were spun down at 18,000 g for 20 min at 4 °C and the soluble fraction was flash-frozen in liquid nitrogen and stored at −80 °C.\nSamples were loaded on an 8% SDS-Page gel (Genscript) with 4×10^6 infected RBCs or 50 µg protein for the parasite lysate approach. Proteins were transferred to a nitrocellulose membrane that was blocked with 5% skim milk (Sigma) in PBS overnight and incubated with rabbit antiserum against AcAS (1:1000) for 1 h. Subsequently, membranes were washed three times with PBS-Tween for 5 min, followed by incubation with secondary horseradish peroxide (HRP)-conjugated goat anti-rabbit antibodies (Dako P0448, 1:1000) for 1 h. Blots were then washed three times with PBS-Tween for 5 min and twice with PBS. Following a 5-min incubation with Clarity Max Western ECL Substrate (BioRad), protein blots were imaged using the ImageQuant LAS4000 (GE Healthcare). The band intensity was quantified using Fiji software."}, "[1]": {"experiment": "Blood to plasma ratio, human"}, "hERG channel": {"target": "T1, hERG channel (Homo sapiens, UniProt Q12809)", "T1 construct": "Metrion Biosciences", "T1 sequence (Q12809 whole entry)": "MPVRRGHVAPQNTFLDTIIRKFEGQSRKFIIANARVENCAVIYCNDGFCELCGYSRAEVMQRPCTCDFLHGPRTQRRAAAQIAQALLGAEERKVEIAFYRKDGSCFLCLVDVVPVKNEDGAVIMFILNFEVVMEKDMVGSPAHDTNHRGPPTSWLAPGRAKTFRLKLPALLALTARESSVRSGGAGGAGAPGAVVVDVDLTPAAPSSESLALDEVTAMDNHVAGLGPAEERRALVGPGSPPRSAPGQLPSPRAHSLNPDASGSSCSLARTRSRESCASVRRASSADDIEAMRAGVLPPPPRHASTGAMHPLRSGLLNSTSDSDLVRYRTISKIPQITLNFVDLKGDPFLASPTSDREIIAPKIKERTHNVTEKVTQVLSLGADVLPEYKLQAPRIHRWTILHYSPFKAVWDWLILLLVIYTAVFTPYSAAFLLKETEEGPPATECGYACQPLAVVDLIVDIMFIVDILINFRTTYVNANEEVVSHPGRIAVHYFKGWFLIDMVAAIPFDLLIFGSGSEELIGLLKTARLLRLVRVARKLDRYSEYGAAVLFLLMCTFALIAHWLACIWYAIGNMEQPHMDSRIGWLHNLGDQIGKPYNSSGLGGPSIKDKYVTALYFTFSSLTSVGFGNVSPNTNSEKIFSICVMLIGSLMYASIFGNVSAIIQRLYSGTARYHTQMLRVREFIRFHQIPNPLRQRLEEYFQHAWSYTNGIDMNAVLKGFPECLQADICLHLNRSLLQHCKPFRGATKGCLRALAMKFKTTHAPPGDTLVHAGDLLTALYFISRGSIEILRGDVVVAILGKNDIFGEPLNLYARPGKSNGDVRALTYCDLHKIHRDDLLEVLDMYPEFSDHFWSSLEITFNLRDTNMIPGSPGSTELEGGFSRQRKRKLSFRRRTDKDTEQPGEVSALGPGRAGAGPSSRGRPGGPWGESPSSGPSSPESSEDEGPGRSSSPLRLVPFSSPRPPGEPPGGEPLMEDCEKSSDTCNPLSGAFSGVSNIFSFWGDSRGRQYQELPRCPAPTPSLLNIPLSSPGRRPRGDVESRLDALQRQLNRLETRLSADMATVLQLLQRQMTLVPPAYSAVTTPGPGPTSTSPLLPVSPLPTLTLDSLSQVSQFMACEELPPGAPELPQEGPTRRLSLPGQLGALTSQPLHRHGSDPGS", "experiment": "Automated patch clamp (Qpatch)", "assay_type": "cell-based", "method": "Safety studies were performed by commercial services using their standard protocols. […] Genotoxicity was investigated using the Ames test (Bacterial Reverse Mutation Assay) (Covance Laboratories Ltd, North Yorkshire, England). In vitro mammalian cell micronucleus screening assay was studied in human peripheral blood lymphocytes (BioReliance Corporation, Rockville, USA). Cardiotoxicity was determined against the hERG channel in an automated patch clamp assay using the Qpatch or against the hNaV 1.5, hKV 1.5 and hCaV 1.2 using a manual patch-clamp technique (Metrion Biosciences, Cambridge, UK). Cytotoxicity in human and rat primary hepatocytes was assessed using the CellTiter-Blue assay performed by commercial services (KaLy-Cell). The viability of HepG2 cells was monitored through the addition of 1 mM resazurin. Following 6 h incubation, the relative amount of reduced resazurin was detected in a fluorimeter and compared to the assay controls (vehicle: 0.1% DMSO and positive control: 10 µM puromycin)."}, "3-day MTD2 rat study": {"experiment": "3-day MTD2 rat study", "assay_type": "in vivo, Wistar Han rats", "settings": "300, 600, 1000 mg/kg/day, three days", "from_the_text": "See the summary of the study design in Supplementary Table 31. Nine-week-old Wistar (Crl:WI (Han)) rats were obtained from Charles River Laboratories (Domaine des Oncins, Saint-Germain-Nuelles, France). […] Animals were examined daily for any altered clinical signs, body weights, and food consumption. Blood samples were taken at different timepoints after the test item administration, and toxicokinetic exposure assessed under the defined experimental conditions and analyzed using Phoenix (version 6.4 and 1.4) (Supplementary Table 32). Measurements included hematology and clinical chemistry measurements. Animals were euthanized and necropsied at the end of the dosing period. At necropsy, major organ systems and tissues were collected and weighed and then examined for gross lesions as well as for microscopic changes."}, "CYP2B6": {"system": "CYP2B6", "experiment": "CYP induction (mRNA) in human hepatocytes", "assay_type": "in vitro ADME", "settings": "for CYP2B6 mean fold induction: per donor", "method": "(§1) Positive control inducers (omeprazole for CYP1A2, phenobarbital for CYP2B6, and rifampicin for CYP3A4), were incubated alongside the test compound. For mRNA assessment, cells were lysed and resultant samples analyzed using an ABI 7900 HT real-time PCR system."}, "CYP1A2": {"system": "CYP1A2", "experiment": "CYP induction (mRNA) in human hepatocytes", "assay_type": "in vitro ADME", "settings": "for CYP1A2 mean fold induction: per donor", "method": "as §1"}, "panel of human enzymes": {"system": "panel of human enzymes", "experiment": "Off-target enzyme and uptake assays (Eurofins CEREP)", "assay_type": "biochemical", "settings": "for % Inhibition of Control Values: Rep1, Rep2, Mean"}, "dog primary hepatocytes": {"system": "dog primary hepatocytes", "experiment": "Hepatocyte stability, dog", "assay_type": "in vitro ADME"}, "P. falciparum 3D7": {"system": "P. falciparum 3D7", "experiment": "Parasite reduction rate (PRR) in vitro killing rate assay", "assay_type": "cell-based, Plasmodium falciparum", "method": "The antimalarial killing rate was determined by GlaxoSmithKline (GSK, Tres Cantos, Madrid, Spain) as described previously. […] The number of viable parasites was determined on day 21 and 28 by counting the wells with parasite growth."}, "[2]": {"experiment": "Blood to plasma ratio, rat"}}, "note": "Where “and” joins values, the source holds several entries; their conditions need not be identical. Identical values can stand only once."}
{"smiles": "C[C@@H](CNC(=O)[C@H](O)C(C)(C)CO)NC(=O)c1cc(F)c(F)cc1F", "note": "[MMV693183]", "values": [{"measurement": "AcAS band intensity normalized to DMSO at 37 °C", "setting": "AcAS (PF3D7_0627800); 37 °C", "result": 134.836}, {"measurement": "AcAS band intensity normalized to DMSO at 37 °C", "setting": "AcAS (PF3D7_0627800); 42 °C", "result": 174.374}, {"measurement": "AcAS band intensity normalized to DMSO at 37 °C", "setting": "AcAS (PF3D7_0627800); 47 °C", "result": 76.9786}, {"measurement": "AcAS band intensity normalized to DMSO at 37 °C", "setting": "AcAS (PF3D7_0627800); 52 °C", "result": 24.7861}, {"measurement": "AcAS thermal stability", "setting": "AcAS (PF3D7_0627800); 30 min, parasite lysate", "result": "neither the parent compound MMV693183 nor its derivative 4’P-MMV693183 affected AcAS stability"}, {"measurement": "B:P", "setting": "[1]", "result": 0.97}, {"measurement": "IC50", "setting": "hERG channel", "result": "> 10", "unit": "µM"}, {"measurement": "toxicity", "setting": "3-day MTD2 rat study", "result": "no relevant toxicity was observed"}, {"measurement": "CYP2B6 mean fold induction", "setting": "CYP2B6; 5 µM", "result": "1.75 and 0.995 and 1.18"}, {"measurement": "CYP2B6 mean fold induction", "setting": "CYP2B6; 15 µM", "result": "1.38 and 0.951 and 1.660"}, {"measurement": "CYP2B6 mean fold induction", "setting": "CYP2B6; 50 µM", "result": "0.959 and 0.828 and 0.886"}, {"measurement": "CYP2B6 mean fold induction", "setting": "CYP2B6; 150 µM", "result": "0.663 and 0.721 and 0.727"}, {"measurement": "CYP2B6 mean fold induction", "setting": "CYP2B6; 250 µM", "result": "0.667 and 0.582"}, {"measurement": "CYP2B6 mean fold induction", "setting": "CYP2B6; 500 µM", "result": "0.495 and 0.699 and 0.325"}, {"measurement": "CYP2B6 induction", "setting": "CYP2B6; up to 500 µM", "result": "did not induce CYP1A2 nor CYP2B6"}, {"measurement": "CYP1A2 mean fold induction", "setting": "CYP1A2; 5 µM", "result": "1.48 and 1.11 and 1.38"}, {"measurement": "CYP1A2 mean fold induction", "setting": "CYP1A2; 15 µM", "result": "1.04 and 1.07 and 0.844"}, {"measurement": "CYP1A2 mean fold induction", "setting": "CYP1A2; 50 µM", "result": "0.874 and 0.824 and 0.795"}, {"measurement": "CYP1A2 mean fold induction", "setting": "CYP1A2; 150 µM", "result": "0.704 and 0.613 and 0.609"}, {"measurement": "CYP1A2 mean fold induction", "setting": "CYP1A2; 250 µM", "result": "0.586 and 0.436"}, {"measurement": "CYP1A2 mean fold induction", "setting": "CYP1A2; 500 µM", "result": "0.357 and 0.496 and 0.293"}, {"measurement": "CYP1A2 induction", "setting": "CYP1A2; up to 500 µM", "result": "did not induce CYP1A2 nor CYP2B6"}, {"measurement": "induction, GABA transaminase", "setting": "panel of human enzymes; 10 µM", "result": 30.7, "unit": "%"}, {"measurement": "inhibition, HDAC11", "setting": "panel of human enzymes; 10 µM", "result": 36.9, "unit": "%"}, {"measurement": "inhibition/induction, all other enzyme and uptake assays", "setting": "panel of human enzymes; 10 µM", "result": "less than 25%"}, {"measurement": "% Inhibition of Control Values", "setting": "panel of human enzymes; ATPase (Na+/K+)", "result": "-2.75% and -1.9% and -3.6%"}, {"measurement": "% Inhibition of Control Values", "setting": "panel of human enzymes; CENP-E (h)", "result": "-0.4% and -0.6% and -0.2%"}, {"measurement": "% Inhibition of Control Values", "setting": "panel of human enzymes; COX1(h)", "result": "-4.65% and -5.4% and -3.9%"}, {"measurement": "% Inhibition of Control Values", "setting": "panel of human enzymes; Eg5 (h)", "result": "-5.55% and -2% and -9.1%"}, {"measurement": "% Inhibition of Control Values", "setting": "panel of human enzymes; GABA transaminase", "result": "-30.7% and -29.5% and -31.9%"}, {"measurement": "% Inhibition of Control Values", "setting": "panel of human enzymes; HDAC6 (h)", "result": "-14.7% and -18.7% and -10.7%"}, {"measurement": "% Inhibition of Control Values", "setting": "panel of human enzymes; HDAC11 (h)", "result": "36.9% and 32.5% and 41.3%"}, {"measurement": "% Inhibition of Control Values", "setting": "panel of human enzymes; MAO-A (h)", "result": "1.7% and -0.1% and 3.5%"}, {"measurement": "% Inhibition of Control Values", "setting": "panel of human enzymes; MAO-B (h) recombinant enzyme", "result": -1.9, "unit": "%"}, {"measurement": "% Inhibition of Control Values", "setting": "panel of human enzymes; PDE1B (h)", "result": "0.9% and -2.7% and 4.5%"}, {"measurement": "% Inhibition of Control Values", "setting": "panel of human enzymes; PDE2A1 (h)", "result": "-1% and -4.3% and 2.3%"}, {"measurement": "% Inhibition of Control Values", "setting": "panel of human enzymes; PDE3A (h)", "result": "1.1% and -1.7% and 3.9%"}, {"measurement": "% Inhibition of Control Values", "setting": "panel of human enzymes; PDE5 (h) (non-selective)", "result": "-3.55% and -4.2% and -2.9%"}, {"measurement": "% Inhibition of Control Values", "setting": "panel of human enzymes; acetylcholinesterase (h)", "result": "5.45% and 8.7% and 2.2%"}, {"measurement": "% Inhibition of Control Values", "setting": "panel of human enzymes; phosphatase 1B (h) (PTP1B)", "result": "10.8% and 11.2% and 10.4%"}, {"measurement": "% Inhibition of Control Values", "setting": "panel of human enzymes; phosphatase CDC25A (h)", "result": "-0.35% and -5% and 4.3%"}, {"measurement": "% Inhibition of Control Values", "setting": "panel of human enzymes; sirtuin 1 (h) (inhibitor effect)", "result": "-1.45% and -1.9% and -1%"}, {"measurement": "% Inhibition of Control Values", "setting": "panel of human enzymes; tyrosine hydroxylase", "result": "-0.5% and 2.4% and -3.4%"}, {"measurement": "Compound Remaining (% of 0 min)", "setting": "dog primary hepatocytes; 0 min", "result": 100, "unit": "%"}, {"measurement": "Compound Remaining (% of 0 min)", "setting": "dog primary hepatocytes; 5 min", "result": 92.3, "unit": "%"}, {"measurement": "Compound Remaining (% of 0 min)", "setting": "dog primary hepatocytes; 10 min", "result": 91.7, "unit": "%"}, {"measurement": "Compound Remaining (% of 0 min)", "setting": "dog primary hepatocytes; 20 min", "result": 92.7, "unit": "%"}, {"measurement": "Compound Remaining (% of 0 min)", "setting": "dog primary hepatocytes; 40 min", "result": 85.2, "unit": "%"}, {"measurement": "Compound Remaining (% of 0 min)", "setting": "dog primary hepatocytes; 60 min", "result": 83.9, "unit": "%"}, {"measurement": "time to parasitemia below the detection limit", "setting": "P. falciparum 3D7; 40 nM (10x IC50)", "result": "≤ 48", "unit": "h"}, {"measurement": "Average (log parasites +1)", "setting": "P. falciparum 3D7; 24 h", "result": 0.452}, {"measurement": "Average (log parasites +1)", "setting": "P. falciparum 3D7; 48 h", "result": 0.0}, {"measurement": "log (parasites +1)", "setting": "P. falciparum 3D7; 48 h", "result": 0.0}, {"measurement": "parasites", "setting": "P. falciparum 3D7; 48 h", "result": 0}, {"measurement": "Average (log parasites +1)", "setting": "P. falciparum 3D7; 72h", "result": 0.0}, {"measurement": "log (parasites +1)", "setting": "P. falciparum 3D7; 72h", "result": 0.0}, {"measurement": "parasites", "setting": "P. falciparum 3D7; 72h", "result": 0}, {"measurement": "Average (log parasites +1)", "setting": "P. falciparum 3D7; 96h", "result": 0.0}, {"measurement": "log (parasites +1)", "setting": "P. falciparum 3D7; 96h", "result": 0.0}, {"measurement": "parasites", "setting": "P. falciparum 3D7; 96h", "result": 0}, {"measurement": "Average (log parasites +1)", "setting": "P. falciparum 3D7; 120h", "result": 0.0}, {"measurement": "log (parasites +1)", "setting": "P. falciparum 3D7; 120h", "result": 0.0}, {"measurement": "parasites", "setting": "P. falciparum 3D7; 120h", "result": 0}, {"measurement": "B:P", "setting": "[2]", "result": 0.91}]}
